For the assay, the target named is mTOR/GbL/Raptor (mTORC1) (Homo sapiens, UniProt P42345). Briefly: mTOR/GbL/Raptor (mTORC1) ELISA assay. It is filed as biochemical. The following applies: phosphorylation of 4E-BP1; 0.2 nM mTORC1, 10 μM ATP; read-out: IC50 in this assay (mTORC1 ELISA). The method, boiled down:
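ELISA read-out: phospho-4E-BP1 captured on Ni-chelate plates and detected with anti-phospho antibody plus HRP-anti-IgG luminescence. The kinase step ran 120 min at ambient temperature with 0.2 nM human mTORC1, 10 µM ATP, 50 nM His-4E-BP1, 10 mM MnCl2, pH 7.2 HEPES.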
Background: An ELISA detects its analyte on a solid surface through an enzyme-linked reagent.

Turning to `CN(C)Cc1nc2c(c(N3CCOc4ccc(-c5cnc(Cl)c(NS(C)(=O)=O)c5)cc4C3)n1)CC(C)(C)CC2` [Example 616, N-[2-chloro-5-(4-{2-[(dimethylamino)methyl]-6,6-dimethyl-5,6,7,8-tetrahydroquinazolin-4-yl}-2,3,4,5-tetrahydro-1,4-benzoxazepin-7-yl)puyridin-3-yl]methanesulfonamide], the IC50 lay in the range of 50 to 250 nM. To `Cc1nc2ccc(-c3ccc4c(c3)CN(c3ncnc(C)c3Cc3ccccc3)CCO4)cc2[nH]1` [Example 55, 7-(2-methyl-1H-benzimidazol-6-yl)-4-[6-methyl-5-(phenylmethyl)pyrimidin-4-yl]-2,3,4,5-tetrahydro-1,4-benzoxazepine] belongs not above 10 nM. To `Cc1nc2ncc(-c3ccc4c(c3)CN(c3nc(CNC5CC5)nc5c3CC(C)(C)CC5)CCO4)cc2[nH]1` [Example 599, N-({6,6-dimethyl-4-[7-(2-methyl-1H-imidazo[4,5-b]pyridin-6-yl)-2,3-dihydro-1,4-benzoxazepin-4(5H)-yl]-5,6,7,8-tetrahydroquinazolin-2-yl}methyl)cyclopropanamine] belongs not above 10 nM; to `COc1cc2ncnc(N3CCOc4ccc(-c5ccc6nc(C)[nH]c6c5)cc4C3)c2cc1Br` [Example 43, 4-[6-bromo-7-(methyloxy)quinazlolin-4-yl]-7-(2-methyl-1H-benzimidazol-6-yl)-2,3,4,5-tetrahydro-1,4-benzoxazepine], 50 to 250 nM. Regarding `Cc1ncnc(N2CCOc3ccc(-c4ccc(C(=O)NC5CC5)cc4)cc3C2)c1Cc1ccc(F)cc1` [Example 172, N-cyclopropyl-4-(4-{5-[(4-fluorophenyl)methyl]-6-methylpyrimidin-4-yl}-2,3,4,5-tetrahydro-1,4-benzoxazepin-7-yl)benzamide], the IC50 was 50 to 250 nM.

With `Cc1nc2ccc(-c3ccc4c(c3)CN(c3ncnc(C)c3C(C)C)CCO4)cc2[nH]1` [Example 66, 7-(2-methyl-1H-benzimidazol-6-yl)-4-[6-methyl-5-(1-methylethyl)pyrimidin-4-yl]-2,3,4,5-tetrahydro-1,4-benzoxazepine], the 50% inhibitory concentration (IC50) was not above 10 nM. On to `CN1CC[C@H](CNS(=O)(=O)c2cc(-c3ccc4c(c3)CN(c3ncnc5c3CC(C)(C)CC5)CCO4)cnc2N)C1` [Example 394, 2-amino-5-[4-(6,6-dimethyl-5,6,7,8-tetrahydroquinazolin-4-yl)-2,3,4,5-tetrahydro-1,4-benzoxazepin-7-yl]-N-{[(3S)-1-methylpyrrolidin-3-yl]methyl}pyridine-3-sulfonamide], for which the 50% inhibitory concentration (IC50) fell in the range of 50 to 250 nM. To `CN1CCN(S(=O)(=O)c2cc(-c3ccc4c(c3)CN(c3ncnc5c3CC(C)(C)CC5)CCO4)cnc2N)CC1` [Example 516, 5-[4-(6,6-dimethyl-5,6,7,8-tetrahydroquinazolin-4-yl)-2,3,4,5-tetrahydro-1,4-benzoxazepin-7-yl]-3-[(4-methylpiperazin-1-yl)sulfonyl]pyridin-2-amine] belongs 50 to 250 nM; to `COc1ccc2c(N3CCOc4ccc(-c5ccc(-c6c[nH]cn6)cc5)cc4C3)nc(C)nc2c1` [Example 570, 7-[4-(1H-imidazol-4-yl)phenyl]-4-[2-methyl-7-(methyloxy)quinazolin-4-yl]-2,3,4,5-tetrahydro-1,4-benzoxazepine], 50 to 250 nM; to `Cc1nc(C)c(Cc2ccc(F)cc2)c(N2CCOc3ccc(-c4ccc5nc(C)[nH]c5c4)cc3C2)n1` [Example 97, 4-{5-[(4-fluorrophenyl)methyl]-2,6-dimethylpyrimidin-4-yl}-7-(2-methyl-1H-benzimidazol-6-yl)-2,3,4,5-tetrahydro-1,4-benzoxazepine], not above 10 nM. The value for `COc1ccc(-c2ccc3c(c2)CN(c2nc(CN(C)C)nc4c2CC(C)(C)CC4)CCO3)cc1OC` [Example 323, 1-(4-{7-[3,4-bis(methyloxy)phenyl]-2,3-dihydro-1,4-benzoxazepin-4(5H)-yl}-6,6-dimethyl-5,6,7,8-tetrahydroquinazolin-2-yl)-N,N-dimethylmethanamine] was 250 to 1000 nM; that for `Cc1nc(CN(C)C)nc(N2CCOc3ccc(-c4cnc5sc(N)nc5c4)cc3C2)c1CC1CC1` [Example 663, 6-(4-{5-(cyclopropylmethyl)-2-[(dimethylamino)methyl]-6-methylpyrimidin-4-yl}-2,3,4,5-tetrahydro-1,4-benzoxazepin-7-yl)[1,3]thiazolo[5,4-b]pyridin-2-amine] was 50 to 250 nM.

In the case of `Cc1nc2cc(-c3ccc4c(c3)CN(c3ncnc5c3CC3(CC5)CC3)CCO4)cnc2[nH]1` [Example 502], the half-inhibitory concentration (IC50) was not above 10 nM. To `c1ccc2c(N3CCOc4ccc(-c5ccc6nc(C7CC7)[nH]c6c5)cc4C3)ccnc2c1` [Example 199, 7-(2-cyclopropyl-1H-benzimidazol-6-yl)-4-quinolin-4-yl-2,3,4,5-tetrahydro-1,4-benzoxazepine] belongs 250 to 1000 nM; to `Cc1nc(CN(C)C)nc(N2CCOc3ccc(-c4ccc5[nH]c(C(F)F)nc5c4)cc3C2)c1C(C)C` [Example 331, 1-[4-{7-[2-(difluoromethyl)-1H-benzimidazol-5-yl]-2,3-dihydro-1,4-benzoxazepin-4(5H)-yl}-6-methyl-5-(1-methylethyl)pyrimidin-2-yl]-N,N-dimethylmethanamine], 50 to 250 nM; to `CCC1CCc2ncnc(N3CCOc4ccc(-c5ccc6nc(C)[nH]c6c5)cc4C3)c2C1` (stereo not shown) [Example 68, 4-(6-ethyl-5,6,7,8-tetrahydroquinazolin-4-yl)-7-(2-methyl-1H-benzimidazol-6-yl)-2,3,4,5-tetrahydro-1,4-benzoxazepine], 10 to 50 nM.

Take `CCCc1nc2ccc(-c3ccc4c(c3)CN(c3ccnc5ccccc35)CCO4)cc2[nH]1` [Example 197, 7-(2-propyl-1H-benzimidazol-6-yl)-4-quinolin-4-yl-2,3,4,5-tetrahydro-1,4-benzoxazepine]: the 50% inhibitory concentration (IC50) was 1000 to 2000 nM. The value for `COCCNCc1nc2c(c(N3CCOc4ccc(-c5cnc6nc(C)[nH]c6c5)cc4C3)n1)CC(C)(C)CC2` [Example 590, N-({6,6-dimethyl-4-[7-(2-methyl-1H-imidazo[4,5-b]pyridin-6-yl)-2,3-dihydro-1,4-benzoxazepin-4(5H)-yl]-5,6,7,8-tetrahydroquinazolin-2-yl}methyl)-2-(methyloxy)ethanamine] was not above 10 nM; that for `CCc1nc(CN(C)C)nc(N2CCOc3ccc(-c4ccc5[nH]c(C)nc5c4)cc3C2)c1C` [Example 343, 1-{4-ethyl-5-methyl-6-[7-(2-methyl-1H-benzimidazol-5-yl)-2,3-dihydro-1,4-benzoxazepin-4(5H)-yl]pyrimidin-2-yl}-N,N-dimethylmethanamine] was 1000 to 2000 nM; that for `CN1CCC(CNS(=O)(=O)c2cc(-c3ccc4c(c3)CN(c3ncnc5c3CC(C)(C)CC5)CCO4)cnc2N)CC1` [Example 381, 2-amino-5-[4-(6,6-dimethyl-5,6,7,8-tetrahydroquinazolin-4-yl)-2,3,4,5-tetrahydro-1,4-benzoxazepin-7-yl]-N-[(1-methylpiperidin-4-yl)methyl]pyridine-3-sulfonamide] was 250 to 1000 nM.

Regarding `CC1(C)C=Cc2ncnc(N3CCOc4ccc(-c5cnc6nc(C7CC7)[nH]c6c5)cc4C3)c2C1` [Example 545, 7-(2-cyclopropyl-1H-imidazo[4,5-b]pyridin-6-yl)-4-(6,6-dimethyl-5,6-dihydroquinazolin-4-yl)-2,3,4,5-tetrahydro-1,4-benzoxazepine], the IC50 is not above 10 nM.

For the compound `Cc1nc2ccc(-c3ccc4c(c3)CN(c3ncnc(C)c3Cc3ccc(Cl)cc3)CCO4)cc2[nH]1` [Example 80, 4-{5-[(4-chlorophenyl)methyl]-6-methylpyrimidin-4-yl}-7-(2-methyl-1H-benzimidazol-6-yl)-2,3,4,5-tetrahydro-1,4-benzoxazepine], the IC50 was not above 10 nM. The value for `Cc1nc2ccc(-c3ccc4c(c3)CN(c3nc(-c5ccccn5)nc5c3CC(C)(C)CC5)CCO4)cc2[nH]1` [Example 472, 4-(6,6-dimethyl-2-pyridin-2-yl-5,6,7,8-tetrahydroquinazolin-4-yl)-7-(2-methyl-1H-benzimidazol-6-yl)-2,3,4,5-tetrahydro-1,4-benzoxazepine] was 50 to 250 nM; that for `COCCc1c(C)nc(CN(C)C)nc1N1CCOc2ccc(-c3ccc4nc(C)[nH]c4c3)cc2C1` [Example 664, N,N-dimethyl-1-{4-methyl-6-[7-(2-methyl-1H-benzimidazol-6-yl)-2,3-dihydro-1,4-benzoxazepin-4(5H)-yl]-5-[2-(methyloxy)ethyl]pyrimidin-2-yl}methanamine] was 250 to 1000 nM. The value for `CN(C)C1CN(S(=O)(=O)c2cc(-c3ccc4c(c3)CN(c3ncnc5c3CC(C)(C)CC5)CCO4)cnc2N)C1` [Example 455, 3-{[3-(dimethylamino)azetidin-1-yl]sulfonyl}-5-[4-(6,6-dimethyl-5,6,7,8-tetrahydroquinazolin-4-yl)-2,3,4,5-tetrahydro-1,4-benzoxazepin-7-yl]pyridin-2-amine] was 50 to 250 nM.

For the compound `Cc1ccc2ncnc(N3CCOc4ccc(-c5cnc6nc(N)[nH]c6c5)cc4C3)c2c1` [Example 218, 6-[4-(6-methylquinazolin-4-yl)-2,3,4,5-tetrahydro-1,4-benzoxazpin-7-yl]-1H-imidazo[4,5-b]pyridin-2-amine], the IC50 was not above 10 nM. Regarding `CC[C@H]1CCc2c(ncnc2N2CCOc3ccc(-c4cnc5nc([C@@H](C)N)[nH]c5c4)cc3C2)C1` [Example 297, (1R)-1-(6-{4-[(7S)-7-ethyl-5,6,7,8-tetrahydroquinazolin-4-yl]-2,3,4,5-tetrahydro-1,4-benzoxazepin-7-yl}-1H-imidazo[4,5-b]pyridin-2-yl)ethanamine], the IC50 fell in the range of 50 to 250 nM. The value for `CC1(C)CCc2ncnc(N3CCOc4ccc(-c5cnc(N)c(S(=O)(=O)NCC6(N)CC6)c5)cc4C3)c2C1` [Example 418, 2-amino-N-[(1-aminocyclopropyl)methyl]-5-[4-(6,6-dimethyl-5,6,7,8-tetrahydroquinazolin-4-yl)-2,3,4,5-tetrahydro-1,4-benzoxazepin-7-yl]pyridine-3-sulfonamide] was 10 to 50 nM.

The term IC50 denotes the concentration needed to halve the response being measured.

These data come from patent US8648066B2 (Exelixis, Inc., priority 2009, dated 2014).
